# Activity calls are given as the source filed them. No cut-off for these calls is given here. Positions of bridges follow the written chain, without caps; N, C: chain ends. Residues, ends and D or L forms follow the SMILES beside them.
# How the values were obtained:
# [1] = target: T1, Melanoma-associated antigen 4 (Homo sapiens, UniProt P43358); test: Binding affinity to MAGEA4 (unknown origin) expressed in Escherichia coli BL21-(DE3) by isothermal titration calorimetry
# T1 sequence (P43358 whole entry): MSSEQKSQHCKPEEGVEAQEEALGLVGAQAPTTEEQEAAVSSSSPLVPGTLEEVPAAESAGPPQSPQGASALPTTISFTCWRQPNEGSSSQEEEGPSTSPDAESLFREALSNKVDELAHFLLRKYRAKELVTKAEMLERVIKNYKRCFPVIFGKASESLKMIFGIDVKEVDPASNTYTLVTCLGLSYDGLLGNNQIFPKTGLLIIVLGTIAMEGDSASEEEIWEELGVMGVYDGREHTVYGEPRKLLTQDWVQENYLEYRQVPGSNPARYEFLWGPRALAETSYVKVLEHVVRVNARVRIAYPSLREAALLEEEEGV
# [2] = target: T1, Melanoma-associated antigen 4; test: Binding affinity to recombinant N-terminal His-tagged MAGEA4-MH domain (unknown origin) expressed in Escherichia coli BL21-(DE3) by isothermal titration calorimetry
# [3] = target: T1, Melanoma-associated antigen 4; test: Inhibition of Eu-W1024 streptavidin-labeled MAGEA4 (unknown origin) expressed in Escherichia coli BL21-(DE3) incubated for 30 to 60 mins by LANCE TR-FRET assay
# [4] = Inhibition of biotinylated Eu-W1024 streptavidin-labeled MAGEA4 (unknown origin) expressed in Escherichia coli BL21-(DE3)/GST-tagged RAD18 (unknown origin) (267 to 402 residues) interaction using Ulight-anti-GST antibody incubated for 30 to 60 mins by LANCE TR-FRET assay; design: species or system Homo sapiens
# Homo sapiens = organism: Homo sapiens; test: Binding affinity to recombinant N-terminal His-tagged MAGEA4-MH domain Y5A mutant (unknown origin) expressed in Escherichia coli BL21-(DE3) assessed as inhibition of protein stabilization at 10 uM by TR-FRET assay
# [5] = target: T2, Melanoma-associated antigen 4 (Homo sapiens) (UniProt P43358); test: Binding affinity to recombinant N-terminal His-tagged MAGEA4-MH domain (unknown origin) expressed in Escherichia coli BL21-(DE3) assessed as protection in trypsin-induced MAGEA4 protein degradation incubated for 1 hr by proteolysis based SDS-PAGE analysis
# T2 sequence (whole entry): T1 sequence (P43358 whole entry)
Molecule,Kd [1] [nM],Kd [2] [nM],IC50 [3] [nM],IC50 [4] [nM],Activity (Homo sapiens),Activity [5]
CC(C)C[C@@H]1NC(=O)[C@H](CCCNC(=N)N)NC(=O)[C@H](CS)NC(=O)[C@H](Cc2ccc(O)cc2)NC(=O)CSC[C@@H](C(N)=O)NC(=O)[C@H](Cc2ccc(O)cc2)NC(=O)[C@H]([C@@H](C)O)NC(=O)[C@H](CCCNC(=N)N)NC(=O)[C@H]2CCCN2C(=O)[C@H](CC(C)C)NC(=O)[C@H](Cc2cnc[nH]2)NC(=O)[C@H](Cc2ccc(O)cc2)NC(=O)[C@H](CC(=O)O)NC(=O)[C@H](Cc2ccc(O)cc2)NC1=O,11.8,6.5,< 1,< 10,,
CC(C)C[C@@H]1NC(=O)[C@H]([C@H](C)O)NC(=O)[C@H](C(C)C)NC(=O)[C@H](Cc2ccc(O)cc2)NC(=O)CSC[C@@H](C(N)=O)NC(=O)[C@H]([C@@H](C)O)NC(=O)[C@H]2CCCN2C(=O)[C@H](Cc2ccccc2)NC(=O)[C@H](CCCNC(=N)N)NC(=O)[C@H](CC(N)=O)NC(=O)[C@H](Cc2ccccc2)NC(=O)[C@H]([C@@H](C)O)NC(=O)[C@H](CCCNC(=N)N)NC1=O,55.5,47.4,1.26,13.5,,
CC[C@H](C)[C@@H]1NC(=O)[C@H](Cc2ccc(O)cc2)NC(=O)CSC[C@@H](C(N)=O)NC(=O)[C@H](CC(N)=O)NC(=O)[C@H](Cc2cnc[nH]2)NC(=O)[C@H](Cc2ccc(O)cc2)NC(=O)[C@H](CC(=O)O)NC(=O)[C@H](C)NC(=O)[C@H](CC(C)C)NC(=O)[C@H](CCCNC(=N)N)NC1=O ({CH2CO}-YIRLADYHNC-NH2; thioether N-10),,,,,Active,
Ac-YIRLYDYHNC-NH2,,,< 10000,,,Active
